Entries after “also recorded” stand apart in the source; their conditions may differ.
What was measured:
human iPSC-CFs [1] = assay: Quantitative real-time PCR of gene expression in drug-treated iPSC-CFs; type: cell-based
Protocol: (§1) Quantitative real-time PCR. Total RNA was isolated using the Qiagen miRNeasy Mini Kit (Qiagen Sciences, Inc, Germantown, Md.) following the manufacturer's instruction. For reverse transcription, a High Capacity RNA-to-cDNA kit (Life Technologies) was used, and the cDNA template was synthesized based on 1 μg of total mRNA. After mixing 0.2 μl of the cDNA template, 1 μl of TaqMan® primer sets (Life Technologies), 10 μl of TaqMan® Master Mix (Life Technologies), and 8.8 μl of ddH2O in the reaction system, real-time quantitative PCR was performed on the StepOne™ Real-Time PCR System (Life Technologies). Each reaction was run in triplicate. Expression values were normalized to the average expression of GAPDH.
(§2) Drug treatment. Unless otherwise stated, cells were treated with all drugs for 48 hrs. We used 5 ng/ml of TGFβ1 (240-B-010, R&D) to activate iPSC-CFs. Due to the short half-life, BNP (CYT-369, Prospec) was added into the medium three times a day. We used 20 μM of sacubitril (SML1380, Sigma) to inhibit ANP/BNP degradation. We used pirfenidone (S2907, Selleck Chemicals) and doxorubicin (25316-40-9, Selleck Chemicals) to test their anti-fibrotic and pro-fibrotic effects on iPSC-CFs, respectively.

human iPSC-CFs [2] = assay: CF differentiation and passaging in the presence of TGF-β inhibitor; type: cell-based
Protocol: Differentiation of human iPSC-derived cardiac fibroblasts. Human iPSCs were treated with 6 μM of CHIR99021 for 2 days, recovered in RPMI+B27-insulin for 24 hrs, treated with 5 μM of IWR-1 (10161, Sigma) for 2 days, and then RPMI+B27-insulin for another 24 hrs. On day 6, human induced pluripotent stem cell-derived cardiac progenitor cells (iPSC-CPCs) were re-plated at a density of 20,000 cells/cm2 in advanced DMEM medium (12634028, Gibco®, Life Technologies). On day 7 or 8, cells were treated with 5 μM of CHIR99021 and 2 μM of retinoic acid (R2625, Sigma-Aldrich) for 2 days, and recovered in advanced DMEM for 3 days. Typically, the purity of human induced pluripotent stem cell-derived epicardial cells (iPSC-EPCs) is >90% (WT1+). Human iPSC-EPCs were re-plated and treated with […] (100-18B, PeproTech) and 10 μM of SB431542 (S1067, Selleck chemicals) in a fibroblast growth medium for another 6 days. >90% purity of iPSC-CFs (COL-I+/DDR2+/TCF21+) can be achieved as assessed by FACS. Cultures were maintained in a humidified atmosphere (95% air, 5% CO2) at 37° C.
Differentiation of Quiescent Cardiac Fibroblasts from iPSC Derived Epicardial Cells. 1. On day 14, prepare fibroblast growth medium containing 20 ng/ml of FGF2 and 10 μM of SB431542. 2. Aspirate the spent medium, add 1 ml of Accutase per well in a 6-well plate, and incubate the plate in a […], 5% CO2 incubator for 5 min. […]

human iPSC-CFs [3] = assay: Immunoblotting of α-SMA in drug-treated iPSC-CFs; type: cell-based
Protocol: (§3) Immunoblotting and quantification. Cultured cells were homogenized in the RIPA buffer with proteinase and phosphatase inhibitor cocktails (78440, ThermoFisher), and quantified by Pierce™ BCA Protein Assay Kit (Pierce Biotechnology Inc.). A total of 20 μg protein was separated on NuPAGE® Novex® 4-12% Bis-Tris Protein Gels (Invitrogen, Carlsbad, Calif.). After being transferred to Amersham™ Hybond™ Blotting Membranes (GE Healthcare), proteins were incubated with primary antibodies against α-SMA (ab7817, Abcam), periostin (ab14041, Abcam), collagen Ill (ab7778, Abcam), fibronectin (ab6328, Abcam), MYH7 (sc-53089, Santa Cruz), and GAPDH (MA5-15738, Invitrogen). Band intensities for target bands were analyzed and quantified by the ImageJ Fuji program.
as §2

human iPSC-CFs [4] = assay: Collagen gel contraction assay; type: cell-based; details: gels imaged after 24 hrs
Protocol: Gel contraction assay. Collagen gel contraction assays were performed in three independent lines of iPSC-CFs (2.0×10^5 cells per well) using a Cell Contraction Assay kit (CBA5020, Cell Biolabs) as per the manufacturer's protocol. The cells were treated in the absence or presence of TGF-β±a TGF-β inhibitor SB431542 (SB). The gels were imaged after 24 hrs and gel area was quantified using ImageJ software (version 1.49).

human iPSC-CFs [5] = assay: Flow cytometry (FACS) of α-SMA+ myofibroblast population; type: cell-based; details: for effect on TGF-β-induced upregulation of α-SMA / propagation of the α-SMA+ population: in presence of TGF-β, FIG. 5I
Protocol: Fluorescence-activated cell sorting (FACS) analysis. Cells were dissociated into singlets by TrypLE™ (12605, Gibco) for 10 min at 37° C., and the cell suspension was filtered through a 40-μm cell strainer (BD Falcon, San Diego) to remove cell clumps. Single cells were fixed and permeabilized by BD CytofixCytoperm™ buffer (BD 554722) for 20 min at 4° C. Next, cells were incubated with primary antibodies followed by Alexa Fluor™ secondary antibodies (Invitrogen). Primary antibodies against COLI (ab90395, Abcam), DDR2 (sc-81707, Santa Cruz), TCF21 (hpa013189, Sigma-Aldrich), α-SMA (ab7817, Abcam), and WT1 (ab89901, Abcam) were used. The percentage of fibroblasts was calculated as the ratio of TCF21+, DDR2+, and COL-1+ cells in the whole population, respectively. The percentage of myofibroblasts was calculated as the ratio of α-SMA+ cells in the whole population.
as §2

[6] = tested on: human iPSC-CFs co-cultured with iPSC-CMs; assay: Indirect co-culture of iPSC-CFs with iPSC-CMs in the presence of TGF-β ± sacubitril (qPCR, immunoblot); type: cell-based
Protocol: as §1, §3, §2
Indirect and direct contact co-culture. […] As a control, iPSC-CMs were co-cultured with iPSC-CMs in the transwells. The co-cultures were incubated at 37° C. and 5% CO2 before analysis. For direct contact co-culture, we first labeled fibroblasts and iPSC-CMs with CFSE (C34554, Thermo Fischer) and Far cell trace red (C34564, Thermofisher) dyes, respectively. Then, iPSC-CFs were seeded on top of the iPSC-CM monolayer at a ratio of 1:5, allowing for direct cell-cell contact. After 5 days of co-culture, the two cell types were separated by FACS sorting for downstream molecular analyses. The medium used for co-culture is the mixture of RPMI+B27 and fibroblast growth medium at a ratio of 3:1.

[7] = circulatory system; degrading enzyme neprilysin; cited from earlier work
human primary CFs = assay: Quantitative real-time PCR of cardiac-specific genes in primary CFs; type: cell-based
Protocol: Human primary skin, cardiac, lung, bladder fibroblast, and brain pericyte cultures. Human primary cardiac fibroblasts were isolated and cultured as follows: a piece of fresh right atrial biopsy was weighed, minced into small pieces (1-2 mm^3), and digested in 6-well peri-dishes as described. Human primary cardiac fibroblasts were grown and maintained in a fibroblast growth medium (C-23025, Promocell) supplemented with 1% penicillin-streptomycin (15140-122, Gibco) in a humidified atmosphere (95% air, 5% CO2) at 37° C. The medium was renewed every 2-3 days. Cells were passaged using standard trypsinization techniques at 80-90% confluency. The same protocol was also used to isolate and culture fibroblasts from human skin and lung tissues. Primary bladder fibroblasts were purchased from Lifeline (FC-0050) and maintained in the same fibroblast growth medium. Human brain pericytes were purchased from Cell systems (ACBRI 498) and cultured in SmGM-2 medium (Lonza, CC-3182). […]
Quantitative real-time PCR. […] After mixing 0.2 μl of the cDNA template, 1 μl of TaqMan® primer sets (Life Technologies), 10 μl of TaqMan® Master Mix (Life Technologies), and 8.8 μl of ddH2O in the reaction system, real-time quantitative PCR was performed on the StepOne™ Real-Time PCR System (Life Technologies). […]

primary CFs = assay: Sirius red colorimetric assay of secreted collagen, primary CFs; type: cell-based, human; details: 48 hrs
Protocol: Human primary skin, cardiac, lung, bladder fibroblast, and brain pericyte cultures. Human primary cardiac fibroblasts were isolated and cultured as follows: a piece of fresh right atrial biopsy was weighed, minced into small pieces (1-2 mm^3), and digested in 6-well peri-dishes as described. Human primary cardiac fibroblasts were grown and maintained in a fibroblast growth medium (C-23025, Promocell) supplemented with 1% penicillin-streptomycin (15140-122, Gibco) in a humidified atmosphere (95% air, 5% CO2) at 37° C. The medium was renewed every 2-3 days. Cells were passaged using standard trypsinization techniques at 80-90% confluency. The same protocol was also used to isolate and culture fibroblasts from human skin and lung tissues. Primary bladder fibroblasts were purchased from Lifeline (FC-0050) and maintained in the same fibroblast growth medium. Human brain pericytes were purchased from Cell systems (ACBRI 498) and cultured in SmGM-2 medium (Lonza, CC-3182). All experiments were carried out using cells at low cell passages (<P4) and cells were serum-starved for 24 hrs before treatment.
Colorimetric assays. The cells were treated in the absence or presence of TGF-β for 48 hrs. Quantification of total secreted collagen in the cell culture supernatant was performed using a Sirius red collagen detection kit (9062, Chondrex). […]

human iPSC-CFs [8] = assay: Sirius red colorimetric assay of secreted collagen, iPSC-CFs; type: cell-based; details: 48 hrs
Protocol: Colorimetric assays. The cells were treated in the absence or presence of TGF-β for 48 hrs. Quantification of total secreted collagen in the cell culture supernatant was performed using a Sirius red collagen detection kit (9062, Chondrex). The colorimetric assay was performed according to the manufacturer's protocol.

## NC(=O)c1ccc(-c2nc(-c3ccc4c(c3)OCO4)c(-c3ccccn3)[nH]2)cc1 [SB431542, 4-[4-(1,3-benzodioxol-5-yl)-5-(2-pyridinyl)-1H-imidazol-2-yl]benzamide, reference compound]
Human iPSC-CFs [1]; TGF-β ± SB
  effect on TGF-β-induced upregulation of myofibroblast markers ACTA2 and POSTN: effectively inhibited
Human iPSC-CFs [2]; SB added during CF differentiation, transcriptional and protein levels
  levels of smooth muscle marker genes (ACTA2, CNN1, TAGLN, SMTN, MYH11) in iPSC-CFs: negligible levels
Human iPSC-CFs [2]; until passage 5, inhibitor present in fibroblast growth medium
  αSMA+ cells (quiescent state preserved): ~5%
Human iPSC-CFs [3]; CFs from different human iPSC lines, TGF-β ± SB
  effect on TGF-β-induced increase of α-SMA protein levels: abolished
Human iPSC-CFs [4]; TGF-β ± SB
  effect on TGF-β-induced collagen gel contraction: completely abrogated
Human iPSC-CFs [5]
  effect on TGF-β-induced upregulation of α-SMA / propagation of the α-SMA+ population: significantly suppresses

## COc1cccc2c1C(=O)c1c(O)c3c(c(O)c1C2=O)C[C@@](O)(C(=O)CO)C[C@@H]3O[C@H]1C[C@H](N)[C@H](O)[C@H](C)O1 [doxorubicin]
Human iPSC-CFs [5]; FIG. 5J, vs ctrl group
  induction of the α-SMA+ population (pro-fibrosis phenotype): dose-dependent pattern; also recorded: dose-dependent induction

## Cc1ccc(=O)n(-c2ccccc2)c1 [pirfenidone]
Human iPSC-CFs [5]
  effect on TGF-β-induced upregulation of α-SMA / propagation of the α-SMA+ population: significantly suppresses
Human iPSC-CFs [5]; listed as Pirfenidone
  effect on TGF-β-induced upregulation of α-SMA / propagation of the α-SMA+ population: dose dependent inhibitory effect

## CCOC(=O)[C@H](C)C[C@@H](Cc1ccc(-c2ccccc2)cc1)NC(=O)CCC(=O)O [sacubitril]
[6]; TGF-β, 20 μM sacubitril
  mRNA levels of myofibroblast markers and ECM genes in the co-cultured condition: further decreased
  protein levels of myofibroblast markers and ECM genes in the co-cultured condition: further decreased
[6]; iPSC-CMs and iPSC-CFs co-culture
  anti-fibrotic effect seen in co-culture: significantly enhanced
[6]; only when added to the co-culture system
  myofibroblast marker periostin: significantly decreased

## atrial natriuretic peptide [ANP]
[7]
  half-life: 3 min

## brain natriuretic peptide [BNP]
Human iPSC-CFs [1]; in the presence of TGF-β
  mRNA levels of CF markers (PDGFRA and TCF21): higher levels
  mRNA levels of myofibroblast markers and ECM genes (ACTA2, POSTN, COL1A1, COL3A1): significantly lower
Human iPSC-CFs [3]; in the presence of TGF-β, dose-dependent manner
  α-SMA protein levels with escalating concentrations: significantly suppressed
[7]
  half-life: 20 min

## transforming growth factor-β [TGF-β]
Human iPSC-CFs [1]; 5 ng/ml TGFβ1, 48 hrs
  expression levels of ACTA2 and POSTN vs vehicle treatment: significantly increased
Human iPSC-CFs [1]; vs vehicle
  expression levels of ECM genes COL1A1, COL3A1, COL4A2, FN1: significantly increased
  expression of MMP1: downregulation
  expression of MMP2: upregulation
  expression of TIMP1, TIMP2, TIMP3: upregulation
  expression of proteoglycans (VCAN, CTGF, KAL1, TNC, SPARC) and focal adhesion molecules (ITGA4, ITGA5, ITGB5): upregulated expression
Human iPSC-CFs [3]; CFs from different human iPSC lines
  α-SMA protein levels after treatment: significantly increased
Human primary CFs
  expression levels of cardiac-specific genes (GATA4, TBX20, TCF21) vs vehicle-treated cells: significantly downregulated
Human iPSC-CFs [4]
  collagen gel contraction effect vs vehicle group: stronger
Primary CFs
  secreted collagen content: rise in collagen content
Human iPSC-CFs [8]
  secreted collagen content: rise in collagen content

— patent publication US20220348877A1, “GENERATION OF QUIESCENT CARDIAC FIBROBLASTS FROM HUMAN INDUCED PLURIPOTENT STEM CELLS FOR IN VITRO MODELING OF CARDIAC FIBROSIS” (The Board of Trustees of the Leland Stanford Junior …, priority 2019, published 2022)
